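Protocol summary: plate cells (96-well), add compound at 5 concentrations, incubate 48 h, interpolate endpoints linearly. GI50 = concentration required for 50% inhibition of growth. Definition used: TGI = concentration required for complete inhibition of growth.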
Tests used:
Test in all cases: NCI tumour cell line growth inhibition, 48 h; in the data active means GI50 below about 0.43 µM; inactive means the rest
A549 NSCLC = tested on: A549 NSCLC
NCI-H226 lung = tested on: NCI-H226 lung
CCRF-CEM leukemia = tested on: CCRF-CEM leukemia
UACC-62 melanoma = tested on: UACC-62 melanoma
HT29 colon = tested on: HT29 colon
HOP-92 NSCLC = tested on: HOP-92 NSCLC
HCT-116 colon = tested on: HCT-116 colon
U251 CNS = tested on: U251 CNS
HCT-15 colon = tested on: HCT-15 colon
DU-145 prostate = tested on: DU-145 prostate
RPMI-8226 leukemia = tested on: RPMI-8226 leukemia
HL-60(TB) leukemia = tested on: HL-60(TB) leukemia
K-562 leukemia = tested on: K-562 leukemia
PC-3 prostate = tested on: PC-3 prostate
KM12 colon = tested on: KM12 colon
SF-539 CNS = tested on: SF-539 CNS
MALME-3M melanoma = tested on: MALME-3M melanoma
SK-MEL-28 melanoma = tested on: SK-MEL-28 melanoma
SR leukemia = tested on: SR leukemia
SN12C renal = tested on: SN12C renal
BT-549 breast = tested on: BT-549 breast
SF-295 CNS = tested on: SF-295 CNS
OVCAR-8 ovarian = tested on: OVCAR-8 ovarian
NCI/ADR-RES ovarian = tested on: NCI/ADR-RES ovarian
TK-10 renal = tested on: TK-10 renal
MDA-MB-231 breast = tested on: MDA-MB-231 breast
MOLT-4 leukemia = tested on: MOLT-4 leukemia
ACHN renal = tested on: ACHN renal
EKVX NSCLC = tested on: EKVX NSCLC
SW-620 colon = tested on: SW-620 colon
NCI-H522 lung = tested on: NCI-H522 lung
UACC-257 melanoma = tested on: UACC-257 melanoma
LOX IMVI melanoma = tested on: LOX IMVI melanoma
SF-268 CNS = tested on: SF-268 CNS
COLO 205 colon = tested on: COLO 205 colon
NCI-H23 lung = tested on: NCI-H23 lung
SK-MEL-2 melanoma = tested on: SK-MEL-2 melanoma
SK-OV-3 ovarian = tested on: SK-OV-3 ovarian
SNB-75 CNS = tested on: SNB-75 CNS
IGROV1 ovarian = tested on: IGROV1 ovarian
786-0 renal = tested on: 786-0 renal
SNB-19 CNS = tested on: SNB-19 CNS
SK-MEL-5 melanoma = tested on: SK-MEL-5 melanoma
M14 melanoma = tested on: M14 melanoma
MDA-MB-435 = tested on: MDA-MB-435
OVCAR-3 ovarian = tested on: OVCAR-3 ovarian
OVCAR-5 ovarian = tested on: OVCAR-5 ovarian
RXF 393 renal = tested on: RXF 393 renal
HOP-62 NSCLC = tested on: HOP-62 NSCLC
UO-31 renal = tested on: UO-31 renal
OVCAR-4 ovarian = tested on: OVCAR-4 ovarian
HS 578T breast = tested on: HS 578T breast
T-47D breast = tested on: T-47D breast
CAKI-1 renal = tested on: CAKI-1 renal

N#CC1=C(N)NC(N2CCOCC2)=NC12Nc1ccccc1N2
49.1 µM: TGI (UACC-257 melanoma)
70.7 µM: TGI (OVCAR-3 ovarian)
82.1 µM: TGI (UACC-62 melanoma)
> 100 µM: TGI (A549 NSCLC) | TGI (NCI-H226 lung) | TGI (CCRF-CEM leukemia) | TGI (HT29 colon) | TGI (HOP-92 NSCLC) | TGI (HCT-116 colon) | TGI (U251 CNS) | TGI (HCT-15 colon) | TGI (DU-145 prostate) | TGI (RPMI-8226 leukemia) | TGI (HL-60(TB) leukemia) | TGI (K-562 leukemia) | TGI (PC-3 prostate) | TGI (KM12 colon) | TGI (SF-539 CNS) | TGI (MALME-3M melanoma) | TGI (SK-MEL-28 melanoma) | TGI (SR leukemia) | TGI (SN12C renal) | TGI (BT-549 breast) | TGI (SF-295 CNS) | TGI (OVCAR-8 ovarian) | TGI (MOLT-4 leukemia) | TGI (ACHN renal) | TGI (EKVX NSCLC) | TGI (SW-620 colon) | TGI (COLO 205 colon) | TGI (NCI-H23 lung) | TGI (SK-OV-3 ovarian) | TGI (SNB-75 CNS) | TGI (SNB-19 CNS) | TGI (M14 melanoma) | TGI (MDA-MB-435) | TGI (OVCAR-5 ovarian) | TGI (OVCAR-4 ovarian) | TGI (T-47D breast)
inactive: GI50 (A549 NSCLC) 39.8 µM | GI50 (NCI-H226 lung) 27.3 µM | GI50 (CCRF-CEM leukemia) > 100 µM | GI50 (UACC-62 melanoma) 32.2 µM | GI50 (HT29 colon) 32.6 µM | GI50 (HOP-92 NSCLC) > 100 µM | GI50 (HCT-116 colon) 16 µM | GI50 (U251 CNS) 52.6 µM | GI50 (HCT-15 colon) 35.2 µM | GI50 (DU-145 prostate) 63.6 µM | GI50 (RPMI-8226 leukemia) 24.2 µM | GI50 (HL-60(TB) leukemia) 44.2 µM | GI50 (K-562 leukemia) > 100 µM | GI50 (PC-3 prostate) 46.1 µM | GI50 (KM12 colon) > 100 µM | GI50 (SF-539 CNS) 36.3 µM | GI50 (MALME-3M melanoma) 30.5 µM | GI50 (SK-MEL-28 melanoma) 55.8 µM | GI50 (SR leukemia) 28.8 µM | GI50 (SN12C renal) 30.1 µM | GI50 (BT-549 breast) 32.6 µM | GI50 (SF-295 CNS) 32.6 µM | GI50 (OVCAR-8 ovarian) 37.5 µM | GI50 (NCI/ADR-RES ovarian) 28.3 µM | GI50 (TK-10 renal) 10.7 µM | GI50 (MDA-MB-231 breast) 15.3 µM | GI50 (MOLT-4 leukemia) 62.5 µM | GI50 (ACHN renal) 33.3 µM | GI50 (EKVX NSCLC) > 100 µM | GI50 (SW-620 colon) 26.7 µM | GI50 (NCI-H522 lung) 23.5 µM | GI50 (UACC-257 melanoma) 22.9 µM | GI50 (LOX IMVI melanoma) 23.5 µM | GI50 (SF-268 CNS) 21.6 µM | GI50 (COLO 205 colon) 24.1 µM | GI50 (NCI-H23 lung) 21.9 µM | GI50 (SK-MEL-2 melanoma) 20.1 µM | GI50 (SK-OV-3 ovarian) 58.1 µM | GI50 (SNB-75 CNS) > 100 µM | GI50 (IGROV1 ovarian) 2.15 µM | GI50 (786-0 renal) 13 µM | GI50 (SNB-19 CNS) 40 µM | GI50 (SK-MEL-5 melanoma) 15 µM | GI50 (M14 melanoma) > 100 µM | GI50 (MDA-MB-435) 31 µM | GI50 (OVCAR-3 ovarian) 20.2 µM | GI50 (OVCAR-5 ovarian) 42.7 µM | GI50 (RXF 393 renal) 14.2 µM | GI50 (HOP-62 NSCLC) 6.09 µM | GI50 (UO-31 renal) 12.5 µM | GI50 (OVCAR-4 ovarian) > 100 µM | GI50 (HS 578T breast) 18.9 µM | GI50 (T-47D breast) 59.1 µM | GI50 (CAKI-1 renal) 10.8 µM
37.8 µM: TGI (CAKI-1 renal)
40 µM: TGI (786-0 renal)
62.5 µM: TGI (LOX IMVI melanoma)
40.7 µM: TGI (RXF 393 renal)
47.4 µM: TGI (SK-MEL-2 melanoma)
81.4 µM: TGI (UO-31 renal)
32 µM: TGI (SK-MEL-5 melanoma)
70.3 µM: TGI (MDA-MB-231 breast)
51.1 µM: TGI (SF-268 CNS)
23.8 µM: TGI (IGROV1 ovarian)
59.3 µM: TGI (NCI-H522 lung)
54.2 µM: TGI (HS 578T breast)
46.6 µM: TGI (TK-10 renal)
32.5 µM: TGI (HOP-62 NSCLC)
87 µM: TGI (NCI/ADR-RES ovarian)

— PubChem BioAssay (NCI)
